PubChem BioAssay AID248 (DTP/NCI, 2004)
Several values for one entry are separate records, joined by “and”; a condition that tells them apart may be missing. Identical values can stand only once. Inconclusive results and toxic doses are left out. Rule as the data show it: active = T/C of 150% or more; inactive = T/C below 125%.

System: L1210 leukemia ip in BDF1 mice, survival T/C
Test: NCI In Vivo Anticancer Drug Screen. Data for tumor model L1210 Leukemia (intraperitoneal) in B6D2F1 (BDF1) mice
Conditions: endpoint: mean survival time, higher = longer survival
Procedure, shortened: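 Transplanted-tumor mice were given test agent; controls received vehicle only. Survival readings from the two groups were divided (treated over control).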

[1] = dose: 100.0 mg/kg/injection, schedule: Q01DX009 (ip), vehicle: Klucel (hydroxypropylcellulose) (HPC)
[2] = dose: 200.0 mg/kg/injection, schedule: Q01DX009 (ip), vehicle: Klucel (hydroxypropylcellulose) (HPC)
[3] = dose: 400.0 mg/kg/injection, schedule: Q01DX009 (ip), vehicle: Klucel (hydroxypropylcellulose) (HPC)
[4] = dose: 25.0 mg/kg/injection, schedule: Q01DX009 (ip), vehicle: saline with Tween-80
[5] = dose: 50.0 mg/kg/injection, schedule: Q01DX009 (ip), vehicle: saline with Tween-80
[6] = dose: 100.0 mg/kg/injection, schedule: Q01DX009 (ip), vehicle: saline with Tween-80
[7] = dose: 100.0 mg/kg/injection, schedule: Q04DX003 (ip), vehicle: saline with Tween-80
[8] = dose: 200.0 mg/kg/injection, schedule: Q04DX003 (ip), vehicle: saline with Tween-80
[9] = dose: 100.0 mg/kg/injection, schedule: Q04DX003 (ip), vehicle: Klucel (hydroxypropylcellulose) (HPC)
[10] = dose: 200.0 mg/kg/injection, schedule: Q04DX003 (ip), vehicle: Klucel (hydroxypropylcellulose) (HPC)
[11] = dose: 100.0 mg/kg/injection, schedule: Q01DX001 (ip), vehicle: carboxymethylcellulose (CMC)
[12] = dose: 200.0 mg/kg/injection, schedule: Q01DX001 (ip), vehicle: carboxymethylcellulose (CMC)
[13] = dose: 50.0 mg/kg/injection, schedule: Q04DX003 (ip), vehicle: Klucel (hydroxypropylcellulose) (HPC)

Measured: T/C

O=[N+]([O-])c1cccc(OCCCCOc2ccccc2)c1
inactive: [1] 98 % of control | dose: 100.0 mg/kg/injection, schedule: Q04DX003 (ip), vehicle: saline 100 % of control | [2] 101 % of control | dose: 200.0 mg/kg/injection, schedule: Q04DX003 (ip), vehicle: saline 101 % of control | [3] 102 % of control | dose: 400.0 mg/kg/injection, schedule: Q04DX003 (ip), vehicle: saline 95 % of control

CCCc1nc2ccccc2c(=O)n1/N=C/c1ccccc1O
inactive: [1] 97 % of control | [2] 102 % of control | [3] 103 % of control

COc1ccc(C2C3CCC(C3)C2N)cc1 (stereo unspecified)
inactive: dose: 5.0 mg/kg/injection, schedule: Q04DX003 (ip), vehicle: saline 100 % of control | dose: 10.0 mg/kg/injection, schedule: Q01DX009 (ip), vehicle: saline with Tween-80 93 % of control | dose: 10.0 mg/kg/injection, schedule: Q04DX003 (ip), vehicle: saline 100 % of control and 97 % of control | dose: 20.0 mg/kg/injection, schedule: Q01DX009 (ip), vehicle: saline with Tween-80 91 % of control | dose: 20.0 mg/kg/injection, schedule: Q04DX003 (ip), vehicle: saline 97 % of control | [4] 90 % of control | dose: 40.0 mg/kg/injection, schedule: Q04DX003 (ip), vehicle: saline 96 % of control | [5] 95 % of control | [6] 88 % of control | [7] 100 % of control

c1ccc2c(c1)oc1cc3ccncc3cc12
inactive: dose: 100.0 mg/kg/injection, schedule: Q01DX001 (ip), vehicle: saline 96 % of control | dose: 200.0 mg/kg/injection, schedule: Q01DX001 (ip), vehicle: saline 94 % of control | dose: 400.0 mg/kg/injection, schedule: Q01DX001 (ip), vehicle: saline 102 % of control

COc1ccc(NC(Nc2ccc(OC)cc2)C(Cl)(Cl)Cl)cc1
inactive: dose: 100.0 mg/kg/injection, schedule: Q01DX009 (ip), vehicle: other 90 % of control | dose: 100.0 mg/kg/injection, schedule: Q04DX003 (ip), vehicle: other 87 % of control | dose: 200.0 mg/kg/injection, schedule: Q01DX009 (ip), vehicle: other 93 % of control | dose: 200.0 mg/kg/injection, schedule: Q04DX003 (ip), vehicle: other 97 % of control | dose: 400.0 mg/kg/injection, schedule: Q01DX009 (ip), vehicle: other 123 % of control | dose: 400.0 mg/kg/injection, schedule: Q04DX003 (ip), vehicle: other 114 % of control

CCCCCCCCN(c1ccc(C(=O)NC(CCC(=O)OCC)C(=O)OCC)cc1)S(=O)(=O)c1ccc(C)cc1 (stereo unspecified)
inactive: dose: 12.5 mg/kg/injection, schedule: Q01DX009 (ip), vehicle: saline with Tween-80 95 % of control | [4] 95 % of control | [5] 95 % of control

CCOC(=O)c1ccccc1N(O)C(=O)Nc1ccc(C)cc1
inactive: [7] 97 % of control | [8] 105 % of control | dose: 400.0 mg/kg/injection, schedule: Q04DX003 (ip), vehicle: saline with Tween-80 109 % of control

CC1(C)C2CCC1(C)C(COC(=O)c1cc([N+](=O)[O-])cc([N+](=O)[O-])c1)C2 (stereo unspecified)
inactive: [1] 100 % of control | [9] 104 % of control | [2] 92 % of control | [10] 100 % of control | [3] 89 % of control | dose: 400.0 mg/kg/injection, schedule: Q04DX003 (ip), vehicle: Klucel (hydroxypropylcellulose) (HPC) 102 % of control

Nc1nc(N)c2c(n1)CNC2
inactive: [11] 112 % of control | [12] 112 % of control | dose: 400.0 mg/kg/injection, schedule: Q01DX001 (ip), vehicle: carboxymethylcellulose (CMC) 104 % of control

c1ccc(C[n+]2cccc3ccccc32)cc1
inactive: dose: 6.25 mg/kg/injection, schedule: Q01DX009 (ip), vehicle: saline 100 % of control | dose: 6.25 mg/kg/injection, schedule: Q04DX003 (ip), vehicle: saline 97 % of control | dose: 12.5 mg/kg/injection, schedule: Q01DX009 (ip), vehicle: saline 101 % of control | dose: 12.5 mg/kg/injection, schedule: Q04DX002 (ip), vehicle: saline 98 % of control | dose: 12.5 mg/kg/injection, schedule: Q04DX003 (ip), vehicle: saline 106 % of control | dose: 25.0 mg/kg/injection, schedule: Q01DX009 (ip), vehicle: saline 100 % of control | dose: 25.0 mg/kg/injection, schedule: Q04DX002 (ip), vehicle: saline 102 % of control | dose: 25.0 mg/kg/injection, schedule: Q04DX003 (ip), vehicle: saline 101 % of control | dose: 50.0 mg/kg/injection, schedule: Q04DX002 (ip), vehicle: saline 105 % of control

CC1(C)OC2COC(c3[nH]nc(C(N)=O)c3I)C2O1 (stereo unspecified)
inactive: dose: 100.0 mg/kg/injection, schedule: Q01DX005 (ip), vehicle: saline 93 % of control | dose: 200.0 mg/kg/injection, schedule: Q01DX005 (ip), vehicle: saline 95 % of control

O=C1COc2ccccc2N1
inactive: [13] 96 % of control | dose: 100.0 mg/kg/injection, schedule: Q01DX001 (ip), vehicle: other 103 % of control | [9] 94 % of control | dose: 200.0 mg/kg/injection, schedule: Q01DX001 (ip), vehicle: other 96 % of control | [10] 96 % of control

O=C(NCCCl)Nc1ccc2c3c1CCCC3CC2 (stereo unspecified)
inactive: [13] 106 % of control | [9] 107 % of control | [10] 102 % of control

COc1ccc(NC(=O)c2ccc(Cl)cc2Cl)cc1
inactive: dose: 100.0 mg/kg/injection, schedule: Q04DX002 (ip), vehicle: Klucel (hydroxypropylcellulose) (HPC) 111 % of control | dose: 200.0 mg/kg/injection, schedule: Q04DX002 (ip), vehicle: Klucel (hydroxypropylcellulose) (HPC) 104 % of control | dose: 400.0 mg/kg/injection, schedule: Q04DX002 (ip), vehicle: Klucel (hydroxypropylcellulose) (HPC) 101 % of control

CCCCCC(=O)N1CCCCC1C (stereo unspecified)
inactive: dose: 50.0 mg/kg/injection, schedule: Q01DX001 (ip), vehicle: carboxymethylcellulose (CMC) 97 % of control | dose: 50.0 mg/kg/injection, schedule: Q01DX009 (ip), vehicle: carboxymethylcellulose (CMC) 95 % of control and 97 % of control | dose: 50.0 mg/kg/injection, schedule: Q04DX002 (ip), vehicle: carboxymethylcellulose (CMC) 96 % of control and 98 % of control | dose: 50.0 mg/kg/injection, schedule: Q04DX003 (ip), vehicle: carboxymethylcellulose (CMC) 98 % of control | [11] 103 % of control | dose: 100.0 mg/kg/injection, schedule: Q01DX009 (ip), vehicle: carboxymethylcellulose (CMC) 96 % of control and 98 % of control | dose: 100.0 mg/kg/injection, schedule: Q04DX002 (ip), vehicle: carboxymethylcellulose (CMC) 97 % of control and 109 % of control and 92 % of control | dose: 100.0 mg/kg/injection, schedule: Q04DX003 (ip), vehicle: carboxymethylcellulose (CMC) 93 % of control | [12] 90 % of control | dose: 200.0 mg/kg/injection, schedule: Q04DX002 (ip), vehicle: carboxymethylcellulose (CMC) 100 % of control and 86 % of control | dose: 200.0 mg/kg/injection, schedule: Q04DX003 (ip), vehicle: carboxymethylcellulose (CMC) 95 % of control

Cc1nc(C)c(Br)s1
inactive: [4] 97 % of control | [5] 96 % of control | [6] 112 % of control | [7] 105 % of control | [8] 110 % of control
